Assay results as given in patent US20100267561A1, “HERBICIDAL PYRIDAZINONE DERIVATIVES” (priority 2007, published 2010).

Tests used:
Type in all cases: in vivo
[1] = system: barnyardgrass (Echinochloa crus-galli); test: Test A pre-/postemergence plant response
Method in brief: (§1)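 Ratings are visual, 0–100, where 100 means complete control and 0 no effect, taken roughly 10 days after treatment by comparison with untreated controls. Formulation: non-phytotoxic solvent mixture with surfactant.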

corn (Zea mays) = test: Test A pre-/postemergence plant response
Method in brief: as §1

[2] = system: giant foxtail (Setaria faberi); test: Test A pre-/postemergence plant response
Method in brief: as §1

[3] = system: large crabgrass (Digitaria sanguinalis); test: Test A pre-/postemergence plant response
Method in brief: as §1

[4] = system: pigweed (Amaranthus retroflexus); test: Test A pre-/postemergence plant response
Method in brief: as §1

[5] = system: wheat (Triticum aestivum); test: Test A pre-/postemergence plant response
Method in brief: as §1

[6] = system: green foxtail (Setaria viridis); test: Test B pre-/postemergence plant response
Text: (§2) Seeds of plant species selected from blackgrass (Alopecurus myosuroides), downy bromegrass (Bromus tectorum), green foxtail (Setaria viridis), Italian ryegrass (Lolium multiflorum), wheat (Triticum aestivum), wild oat (Avena fatua), catchweed bedstraw (Galium aparine), bermudagrass (Cynodon dactylon), surinam grass (Brachiaria decumbens), cocklebur (Xanthium strumarium), corn (Zea mays), large crabgrass (Digitaria sanguinalis), woolly cupgrass (Eriochloa villosa), giant foxtail (Setaria faberii), goosegrass (Eleusine indica), johnsongrass (Sorghum halepense), kochia (Kochia scoparia), lambsquarters (Chenopodium album), morningglory (Ipomoea coccinea), eastern black (E.B.) nightshade (Solanum ptycanthum), yellow nutsedge (Cyperus esculentus), pigweed (Amaranthus retroflexus), common ragweed (Ambrosia elation), Russian thistle (Salsola iberica), soybean (Glycine max), common (oilseed) sunflower (Helianthus annuus), and velvetleaf (Abutilon theophrasti) were planted and treated preemergence with test chemicals formulated in a non-phytotoxic solvent mixture which included a surfactant.
(§3) At the same time, plants selected from these crop and weed species and also winter barley (Hordeum vulgare), canarygrass (Phalaris minor), chickweed (Stellaria media) and windgrass (Apera spica-venti) were treated with postemergence applications of some of the test chemicals formulated in the same manner. Plants ranged in height from 2 to 18 cm (1- to 4-leaf stage) for postemergence treatments.
(§4) Plant species in the flooded paddy test consisted of rice (Oryza sativa), umbrella sedge (Cyperus difformis), ducksalad (Heteranthera limosa) and barnyardgrass (Echinochloa crus-galli) grown to the 2-leaf stage for testing. At time of treatment, test pots were flooded to 3 cm above the soil surface, treated by application of test compounds directly to the paddy water, and then maintained at that water depth for the duration of the test. Treated plants and controls were maintained in a greenhouse for 13 to 15 days, after which time all species were compared to controls and visually evaluated. Plant response ratings, summarized in Table B, are based on a scale of 0 to 100 where 0 is no effect and 100 is complete control. A dash (-) response means no test result.

[7] = system: johnsongrass (Sorghum halepense); test: Test B pre-/postemergence plant response
Text: as §2, §3, §4

[8] = system: wheat (Triticum aestivum); test: Test B pre-/postemergence plant response
Text: as §2, §3, §4

[9] = Postemergence, 31 g ai/ha, 0 to 100 scale (0 no effect, 100 complete control)
[10] = Postemergence, 125 g ai/ha, 0 to 100 scale, 0 no effect, 100 complete control
[11] = Preemergence, 31 g ai/ha, 0 to 100 scale, 0 is no effect, 100 is complete control
[12] = Preemergence, 125 g ai/ha, 0 to 100 scale (0 no effect, 100 complete control)
[13] = 8 g ai/ha, postemergence, 0-100 scale
[14] = Postemergence, 16 g ai/ha, scale 0 to 100
[15] = Postemergence, 31 g ai/ha, scale 0 to 100
[16] = Postemergence, 62 g ai/ha, scale 0 to 100, 0 no effect, 100 complete control
[17] = 16 g ai/ha, postemergence, 0-100 scale
[18] = Preemergence, 8 g ai/ha, scale 0 to 100 (0 no effect, 100 complete control)
[19] = Preemergence, 31 g ai/ha, scale 0 to 100 (0 no effect, 100 complete control)
[20] = Preemergence, 62 g ai/ha, 0 to 100 scale, 0 no effect, 100 complete control
[21] = Preemergence, 16 g ai/ha, scale 0 to 100

COCc1cc(-c2ccc(Br)cc2)nn1-c1c(O)cnn(C)c1=O [Compound 68]
Plant response rating, Barnyardgrass [1, 9]: 10
Plant response rating, Barnyardgrass [1, 10]: 100
Plant response rating, Barnyardgrass [1, 11]: 0
Plant response rating, Barnyardgrass [1, 12]: 90
Plant response rating, Corn (corn (Zea mays); [9]): 0
Plant response rating, Corn (corn (Zea mays); [10]): 50
Plant response rating, Corn (corn (Zea mays); [11]): 0
Plant response rating, Corn (corn (Zea mays); [12]): 0
Plant response rating, Foxtail, Giant [2, 9]: 50
Plant response rating, Foxtail, Giant [2, 10]: 90
Plant response rating, Foxtail, Giant [2, 11]: 10
Plant response rating, Foxtail, Giant [2, 12]: 100
Plant response rating, Crabgrass, Large [3, 9]: 10
Plant response rating, Crabgrass, Large [3, 10]: 10
Plant response rating, Crabgrass, Large [3, 11]: 0
Plant response rating, Crabgrass, Large [3, 12]: 10
Plant response rating, Pigweed [4, 9]: 0
Plant response rating, Pigweed [4, 10]: 0
Plant response rating, Pigweed [4, 11]: 0
Plant response rating, Pigweed [4, 12]: 0
Plant response rating, Wheat [5, 9]: 0
Plant response rating, Wheat [5, 10]: 0
Plant response rating, Wheat [5, 11]: 0
Foxtail, Green plant response rating [6, 13]: 10
Plant response rating, Foxtail, Green [6, 14]: 50
Plant response rating, Foxtail, Green [6, 15]: 60
Plant response rating, Foxtail, Green [6, 16]: 95
Johnsongrass plant response rating [7, 13]: 0
Johnsongrass plant response rating [7, 17]: 0
Plant response rating, Johnsongrass [7, 15]: 0
Plant response rating, Johnsongrass [7, 16]: 30
Wheat plant response rating [8, 13]: 0
Wheat plant response rating [8, 17]: 0
Plant response rating, Wheat [8, 15]: 0
Plant response rating, Wheat [8, 16]: 0

Cc1nn(C)c(=O)c(-n2nc(-c3ccc(Br)cc3)cc2C)c1O [Compound 81]
Plant response rating, Barnyardgrass [1, 9]: 90
Plant response rating, Barnyardgrass [1, 10]: 100
Plant response rating, Barnyardgrass [1, 11]: 70
Plant response rating, Barnyardgrass [1, 12]: 100
Plant response rating, Corn (corn (Zea mays); [9]): 30
Plant response rating, Corn (corn (Zea mays); [10]): 100
Plant response rating, Corn (corn (Zea mays); [11]): 30
Plant response rating, Corn (corn (Zea mays); [12]): 50
Plant response rating, Foxtail, Giant [2, 9]: 80
Plant response rating, Foxtail, Giant [2, 10]: 100
Plant response rating, Foxtail, Giant [2, 11]: 80
Plant response rating, Foxtail, Giant [2, 12]: 100
Plant response rating, Crabgrass, Large [3, 9]: 90
Plant response rating, Crabgrass, Large [3, 10]: 100
Plant response rating, Crabgrass, Large [3, 11]: 70
Plant response rating, Crabgrass, Large [3, 12]: 100
Plant response rating, Pigweed [4, 9]: 0
Plant response rating, Pigweed [4, 10]: 0
Plant response rating, Pigweed [4, 11]: 0
Plant response rating, Pigweed [4, 12]: 0
Plant response rating, Wheat [5, 9]: 0
Plant response rating, Wheat [5, 10]: 70
Plant response rating, Wheat [5, 11]: 20
Plant response rating, Wheat [5, 12]: 50
Foxtail, Green plant response rating [6, 13]: 85
Plant response rating, Foxtail, Green [6, 14]: 90
Plant response rating, Foxtail, Green [6, 15]: 95
Plant response rating, Foxtail, Green [6, 16]: 98
Foxtail, Green plant response rating [6, 18]: 40
Plant response rating, Foxtail, Green [6, 19]: 100
Plant response rating, Foxtail, Green [6, 20]: 100
Foxtail, Green plant response rating [6, 21]: 80
Johnsongrass plant response rating [7, 13]: 75
Johnsongrass plant response rating [7, 17]: 95
Plant response rating, Johnsongrass [7, 16]: 100
Johnsongrass plant response rating [7, 18]: 60
Plant response rating, Johnsongrass [7, 19]: 95
Plant response rating, Johnsongrass [7, 20]: 95
Johnsongrass plant response rating [7, 21]: 80
Wheat plant response rating [8, 13]: 30
Wheat plant response rating [8, 17]: 55
Plant response rating, Wheat [8, 15]: 95
Plant response rating, Wheat [8, 16]: 100
Wheat plant response rating [8, 18]: 0
Plant response rating, Wheat [8, 19]: 50
Plant response rating, Wheat [8, 20]: 85
Wheat plant response rating [8, 21]: 5
